“Also recorded” adds a separate entry of the source. Read-outs that look alike come from different tables or passages of the source.
Experiments:
cancer stem cells = assay: effects on cancer stem cells with and without 5-fluorouracil; type: cell-based; details: FIG. 7
From the text: The effects on cancer stem cells of 2-acetylnaphtho[2,3-b]furan-4,9-dione was also examined with and without 5-fluorouracil by using methods similar to those disclosed in U.S. pre-grant Publication No. 2012/0252763, Example 3.

[1] = system: esophageal adenocarcinoma; assay: combination with CAPDX regimen, esophageal adenocarcinoma patients; type: in vivo, human; details: Chemo Backbone CAPOX, 0 prior lines
Method: The effects of 2-acetylnaphtho[2,3-b]furan-4,9-dione in combination with capecitabine as part of a CAPDX regimen was assessed in adult patients with esophageal adenocarcinoma.
Four patients aged 58-82 who were pretreated with 0-3 lines of prior treatment received oral administration of 2-acetylnaphtho[2,3-b]furan-4,9-dione twice daily together with CAPDX. For example, 2-acetylnaphtho[2,3-b]furan-4,9-dione was administered at a dose of 240 mg BID or 480 mg BID in combination with CAPDX until progression of disease, unacceptable toxicity, or other discontinuation criterion was met. CAPDX was administered orally (capecitabine) and IV (oxaliplatin). Capecitabine 850 mg/m^2 was administered orally twice-daily for 14 consecutive days and repeated every 21 days or until progression of disease, unacceptable toxicity, or other discontinuation criterion was met. Oxaliplatin 130 mg/m^2 was administered IV and repeated every 21 days thereafter. If capecitabine was tolerated at the 850 mg/m^2 twice daily dose, dosage was increased to 1000 mg/m^2 twice daily as tolerated after the first cycle.

hepatocellular carcinoma = assay: combination with FOLFOX, hepatocellular carcinoma patients; type: in vivo, human; details: Chemo Backbone FOLFOX
Method: The effects of 2-acetylnaphtho[2,3-b]furan-4,9-dione in combination with FOLFOX were assessed in adult patients with hepatocellular carcinoma in a clinical study.
Patients who were pretreated with 1 and 4 lines of prior treatment, respectively, received oral administration of 2-acetylnaphtho[2,3-b]furan-4,9-dione twice daily together with FOLFOX. For example, 2-acetylnaphtho[2,3-b]furan-4,9-dione was administered at a dose of 240 mg BID in combination with FOLFOX. Oxaliplatin 85 mg/m^2 together with leucovorin 400 mg/m^2 were administered intravenously. 5-FU 400 mg/m^2 bolus was administered intravenously immediately following oxaliplatin/leucovorin infusion, followed by 5-FU 1200 mg/m^2/day (total 2400 mg/m^2 over 46-48 hours) continuous intravenous infusion. This regimen was repeated every 14 days thereafter or until progression of disease, unacceptable toxicity, or other discontinuation criterion was met.

FaDu sphere cultures = assay: qPCR cancer stem cell array, gene expression after treatment; type: cell-based; parameters: % Change ATM gene expression / % Change WEE1 gene expression / % Change ACTB gene expression / % Change MERTK gene expression / % Change FGFR2 gene expression / % Change EPCAM gene expression / % Change NOTCH2 gene expression / % Change DDR1 gene expression / % Change STAT3 gene expression / % Change LATS1 gene expression / % Change GSK3B gene expression / % Change TWIST2 gene expression / % Change ITGA2 gene expression / % Change ENG gene expression / % Change PLAUR gene expression / % Change SMO gene expression / % Change DACH1 gene expression / % Change EGF gene expression / % Change TGFBR1 gene expression / % Change ALCAM gene expression / % Change ALDH1A1 gene expression / % Change MAML1 gene expression / % Change HDAC1 gene expression / % Change RPLP0 gene expression / % Change WWC1 gene expression / % Change CD44 gene expression / % Change TAZ gene expression / % Change ITGA6 gene expression / % Change HPRT1 gene expression / % Change JAG1 gene expression / % Change ITGB1 gene expression / % Change IKBKB gene expression / % Change ID1 gene expression / % Change AXL gene expression / % Change DNMT1 gene expression / % Change ITGA4 gene expression / % Change KITLG gene expression / % Change ETFA gene expression / % Change IL8 gene expression / % Change JAK2 gene expression / % Change FOXP1 gene expression / % Change MYC gene expression / % Change NANOG gene expression / % Change YAP1 gene expression / % Change FLOT2 gene expression / % Change KLF17 gene expression / % Change BMI1 gene expression / % Change CHEK1 gene expression / % Change CD34 gene expression / % Change NOTCH1 gene expression / % Change LIN28A gene expression / % Change ATXN1 gene expression / % Change MUC1 gene expression / % Change POU5F1 gene expression / % Change ERBB2 gene expression / % Change CD24 gene expression / % Change PECAM1 gene expression / % Change SIRT1 gene expression / % Change NFKB1 gene expression: dose or concentration left out as unconfirmed
Method: Changes in gene expression following treatment with 2-acetylnaphtho[2,3-b]furan-4,9-dione were evaluated using a cancer stem cell PCR array.
FaDu sphere cultures were treated for 6 hours with DMSO (control) or 2-acetylnaphtho[2,3-b]furan-4,9-dione at 2 mM. RNA was isolated, reversed transcribed, and the resulting cDNA was analyzed using a qPCR cancer stem cell array. Glyceraldehyde 3-phosphate dehydrogenase (GAPDH) was used as a housekeeping gene to normalize the data.

FaDu cancer stem cells = assay: stemness gene expression versus chemo- and targeted therapeutics; type: cell-based; details: 24 hours, 2-acetylnaphtho[2,3-b]furan-4,9-dione 2 mM, sunitinib 20 mM, gemcitabine 2 mM, carboplatin 32 mM, FIGS. 4(A)-(D)
Method: FIGS. 4(A)-(D) depict FaDu cancer stem cells that were treated for 24 hours with DMSO and: (i) 2-acetylnaphtho[2,3-b]furan-4,9-dione (2 mM) (FIG. 4(A)), (ii) sunitinib (20 mM) (FIG. 4(B)), (iii) gemcitabine (2 mM) (FIG. 4(C)), or (iv) carboplatin (32 mM) (FIG. 4(D)).

p-Stat3 and β-catenin = assay: cancer stem cell markers in cancer xenograft models (immunofluorescence); type: in vivo, athymic nude mice; details: human colon cancer xenograft Tumor (SW480) in nude mice, tumors harvested after first dosing; FIG. 5
Method: The effects of 2-acetylnaphtho[2,3-b]furan-4,9-dione on cancer stem cell markers was also examined in cancer xenograft models with and without irinotecan. Human cancer cells were subcutaneously implanted into the right flank of 5-7 weeks old female athymic nude mice. When tumor size reached 200 mm^3, animals were treated with 2-acetylnaphtho[2,3-b]furan-4,9-dione, irinotecan, or a combination of 2-acetylnaphtho[2,3-b]furan-4,9-dione and irinotecan. Tumors were harvested after first dosing.
The harvested tissues were fixed in 3.7% neutral buffered formaldehyde at 4° C. for overnight. The paraffin was embedded, cut to about 5 microns, and affixed onto positively charged slides. After being baked and de-paraffinized, the slides with tumor or control tissues were incubated in 10 mM Sodium Citrate (pH 6.0) for 10 minutes. After antigen retrieval, slides were probed with primary antibodies P-STAT3 (rabbit, Cell Signaling, 1:100), 13-Catenine (mouse, Santa Cruz, 1:400) at 4° C. overnight, and then Alexa Fluor fluorescent dyes-conjugated secondary antibodies (1:500, Invitrogen). After mounting with ProLong mounting medium with DAPI (Invitrogen), the slides were examined under a Zeiss fluorescence microscope with 20× objective, and analyzed with Zen software.

mCRC = details: Single Agent, panitumumab value for K-Ras WT, cited from earlier work
[2] = FaDu sphere cultures, 6 hours, GAPDH-normalized, vs DMSO control

5-fluorouracil and 2-acetylnaphtho[2,3-b]furan-4,9-dione
effect of the combination on cancer stem cells / cancer stem cell growth (cancer stem cells; versus 5-fluorouracil alone and both agents alone): attenuated; also recorded: greater than additive effect

CC(=O)c1cc2c(o1)C(=O)c1ccccc1C2=O [2-acetylnaphtho[2,3-b]furan-4,9-dione]
Best Response, regression ([1]; Patient 0012, BBI608 240 mg bid): 50%
Best Response, regression ([1]; Patient 0021, BBI608 480 mg bid): 24%
Best Response, regression (hepatocellular carcinoma; Patient 0089, BBI608 240 mg bid, 1 prior line): 9%
Best Response, regression (hepatocellular carcinoma; Patient 0121, BBI608 240 mg bid, 4 prior lines): 9%
% Change ACTB gene expression (FaDu sphere cultures; [2]): −24.49%
% Change ALCAM gene expression (FaDu sphere cultures; [2]): −36.13%
% Change ALDH1A1 gene expression (FaDu sphere cultures; [2]): −18.18%
% Change ATM gene expression (FaDu sphere cultures; [2]): −68.65%
% Change ATXN1 gene expression (FaDu sphere cultures; [2]): −45.26%
% Change AXL gene expression (FaDu sphere cultures; [2]): −48.50%
% Change B2M gene expression (FaDu sphere cultures; [2]): −27.69%
% Change BMI1 gene expression (FaDu sphere cultures; [2]): −47.40%
% Change CD24 gene expression (FaDu sphere cultures; [2]): −26.46%
% Change CD34 gene expression (FaDu sphere cultures; [2]): −88.18%
% Change CD44 gene expression (FaDu sphere cultures; [2]): −35.44%
% Change CHEK1 gene expression (FaDu sphere cultures; [2]): −28.88%
% Change DACH1 gene expression (FaDu sphere cultures; [2]): −36.55%
% Change DDR1 gene expression (FaDu sphere cultures; [2]): −38.59%
% Change DNMT1 gene expression (FaDu sphere cultures; [2]): −32.09%
% Change EGF gene expression (FaDu sphere cultures; [2]): −19.07%
% Change ENG gene expression (FaDu sphere cultures; [2]): −37.62%
% Change EPCAM gene expression (FaDu sphere cultures; [2]): −22.87%
% Change ERBB2 gene expression (FaDu sphere cultures; [2]): −43.81%
% Change ETFA gene expression (FaDu sphere cultures; [2]): −31.12%
% Change FGFR2 gene expression (FaDu sphere cultures; [2]): −41.18%
% Change FLOT2 gene expression (FaDu sphere cultures; [2]): −29.19%
% Change FOXP1 gene expression (FaDu sphere cultures; [2]): −29.76%
% Change GSK3B gene expression (FaDu sphere cultures; [2]): −38.06%
% Change HDAC1 gene expression (FaDu sphere cultures; [2]): −36.10%
% Change HPRT1 gene expression (FaDu sphere cultures; [2]): −33.81%
% Change ID1 gene expression (FaDu sphere cultures; [2]): −12.68%
% Change IKBKB gene expression (FaDu sphere cultures; [2]): −32.11%
% Change IL8 gene expression (FaDu sphere cultures; [2]): −7.62%
% Change ITGA2 gene expression (FaDu sphere cultures; [2]): −60.71%
% Change ITGA4 gene expression (FaDu sphere cultures; [2]): −11.52%
% Change ITGA6 gene expression (FaDu sphere cultures; [2]): −54.63%
% Change ITGB1 gene expression (FaDu sphere cultures; [2]): −50.45%
% Change JAG1 gene expression (FaDu sphere cultures; [2]): −14.24%
% Change JAK2 gene expression (FaDu sphere cultures; [2]): −47.94%
% Change KITLG gene expression (FaDu sphere cultures; [2]): −47.99%
% Change KLF17 gene expression (FaDu sphere cultures; [2]): −90.18%
% Change LATS1 gene expression (FaDu sphere cultures; [2]): −60.75%
% Change LIN28A gene expression (FaDu sphere cultures; [2]): −87.52%
% Change MAML1 gene expression (FaDu sphere cultures; [2]): −52.82%
% Change MERTK gene expression (FaDu sphere cultures; [2]): −65.78%
% Change MUC1 gene expression (FaDu sphere cultures; [2]): −27.42%
% Change MYC gene expression (FaDu sphere cultures; [2]): −3.91%
% Change NANOG gene expression (FaDu sphere cultures; [2]): −93.34%
% Change NFKB1 gene expression (FaDu sphere cultures; [2]): −25.54%
% Change NOTCH1 gene expression (FaDu sphere cultures; [2]): −46.24%
% Change NOTCH2 gene expression (FaDu sphere cultures; [2]): −64.37%
% Change PECAM1 gene expression (FaDu sphere cultures; [2]): −70.26%
% Change PLAUR gene expression (FaDu sphere cultures; [2]): −20.64%
% Change POU5F1 gene expression (FaDu sphere cultures; [2]): −77.31%
% Change RPLP0 gene expression (FaDu sphere cultures; [2]): −17.48%
% Change SIRT1 gene expression (FaDu sphere cultures; [2]): −43.35%
% Change SMO gene expression (FaDu sphere cultures; [2]): −55.56%
% Change STAT3 gene expression (FaDu sphere cultures; [2]): −22.87%
% Change TAZ gene expression (FaDu sphere cultures; [2]): −15.09%
% Change TGFBR1 gene expression (FaDu sphere cultures; [2]): −53.34%
% Change TWIST2 gene expression (FaDu sphere cultures; [2]): −21.59%
% Change WEE1 gene expression (FaDu sphere cultures; [2]): −42.86%
% Change WWC1 gene expression (FaDu sphere cultures; [2]): −51.64%
% Change YAP1 gene expression (FaDu sphere cultures; [2]): −47.45%
expression of cancer stem cell markers and genes such as Nanog, Axl, Atm, and Bmi-1 (FaDu sphere cultures; cancer stem cell PCR array): downregulated
expression of self-renewal / CSC genes (β-Catenin, Nanog, Smo, Sox2) (FaDu cancer stem cells): decreased expression
expression of p-Stat3 and β-catenin stem cell markers (p-Stat3 and β-catenin): dramatically reduced expression

O=c1[nH]cc(F)c(=O)[nH]1 [5-fluorouracil, reference compound]
expression of self-renewal / CSC genes (β-Catenin, Nanog, Smo, Sox2) (FaDu cancer stem cells): increased CSC gene expression in certain cases
increase in the number of cancer stem cells compared to control cells (cancer stem cells): approximately 3 fold

CCCCCOC(=O)Nc1nc(=O)n([C@@H]2O[C@H](C)[C@@H](O)[C@H]2O)cc1F [Capecitabine, capecitabine]
Historical DCR (in Evaluable patients with mCRC) (mCRC): 15%
Historical DCR (in Evaluable patients with mCRC) (mCRC; listed as capecitabine): 15%

N.N.O=C([O-])C1(C(=O)[O-])CCC1.[Pt+2] [carboplatin]
expression of self-renewal / CSC genes (β-Catenin, Nanog, Smo, Sox2) (FaDu cancer stem cells): increased CSC gene expression in certain cases

Source: patent US20180098959A1, “METHODS FOR TREATING CANCER” (BOSTON BIOMEDICAL, INC., priority 2015, published 2018)
